Assay results: ChEMBL document CHEMBL5512617, “Tackling Influenza A virus by M2 ion channel blockers: Latest progress and limitations” (Eur J Med Chem, 2024)
pEC50, pIC50: −log10 of the molar value. In brackets after ≈: the same amount, converted by molar mass.

Tested on: Influenza A virus
Assay type: functional, organism-based
Details: H1N1 (A/California/7/2009), MDCK, 72 h
For `CC[C@@H](C(=O)[C@@H](C)[C@@H](O)[C@H](C)[C@@H]1O[C@@H]([C@@H](CC)C(=O)O)CC[C@@H]1C)[C@H]1O[C@]2(C=C[C@@H](O)[C@]3(CC[C@@](C)([C@H]4CC[C@](O)(CC)[C@H](C)O4)O3)O2)[C@H](C)C[C@@H]1C` [SALINOMYCIN], the pEC50 was 5.72.

Tested on: not listed separately
Test: Cytotoxicity against MDCK cells incubated for 24 hrs by neutral red uptake assay
Assay type: toxicity, cell-based, Canis lupus familiaris
Details: dog
With `NC1CCC2(CC1)C1CC3CC(C1)CC2C3` (centres undefined) the CC50 at 24 h was 27.6 µM.

Tested on: Influenza A virus
Assay type: functional, organism-based
Details: H3N2 (A/Perth/10/2007), MDCK, 72 h
`CC[C@@H](C(=O)[C@@H](C)[C@@H](O)[C@H](C)[C@@H]1O[C@@H]([C@@H](CC)C(=O)O)CC[C@@H]1C)[C@H]1O[C@]2(C=C[C@@H](O)[C@]3(CC[C@@](C)([C@H]4CC[C@](O)(CC)[C@H](C)O4)O3)O2)[C@H](C)C[C@@H]1C` [SALINOMYCIN] gave a pEC50 of 5.59.

Molecular target: T1, Matrix protein 2 (Influenza A virus, UniProt P06821)
T1 sequence (P06821 whole entry): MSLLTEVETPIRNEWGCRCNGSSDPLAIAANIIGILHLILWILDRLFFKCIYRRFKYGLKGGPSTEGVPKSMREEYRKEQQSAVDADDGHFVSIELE
Assay type: cell-based, A/Udorn/72, Oocyte
Details: not given
`NC1CCC2(CCCCC2)CC1` [listing 1 of 2 here] showed a pIC50 of 4.90.
In the case of `C1CCC2(CC1)CCNCC2`, the pIC50 was 6.05.
`NC1CCC2(CCCC2)CC1` [listing 1 of 2 here] showed a pIC50 of 5.48.
`NC1CCCC2(CCCCCC2)CC1` (centres undefined) gave a pIC50 of 5.06.
With `NCC1CCC2(CCCCC2)CC1` the pIC50 was 5.05.
`CC(N)C1CCC2(CCCCC2)CC1` (centres undefined) showed a pIC50 of 4.80.
With `NC1CCCC2(CCCCC2)CC1` (centres undefined) the pIC50 was 4.88.
Compound `NC1CCC2(CCCCCC2)CC1` has a pIC50 of 4.89.

Tested on: Influenza A virus
Test: Antiviral activity against influenza A virus A/hanfang/359/95 (H3N2)
Assay type: functional, organism-based
Details: not given
In the case of `O=C(CCC[C@@H]1[C@H]2CCCN3CCC[C@@H](CN1S(=O)(=O)c1ccc(C(F)(F)F)cc1)[C@@H]23)OCCC12CC3CC(CC(C3)C1)C2`, the pIC50 was 4.77.
In the case of `O=C(CCC[C@@H]1[C@H]2CCCN3CCC[C@@H](CN1S(=O)(=O)c1ccccc1)[C@@H]23)OCC12CC3CC(CC(C3)C1)C2`, the pIC50 was 4.79.
Work on `O=C(CCC[C@@H]1[C@H]2CCCN3CCC[C@@H](CN1S(=O)(=O)c1cccc(C(F)(F)F)c1)[C@@H]23)OCC12CC3CC(CC(O)(C3)C1)C2` yielded a pIC50 of 4.95.
Compound `O=C(CCC[C@@H]1[C@H]2CCCN3CCC[C@@H](CN1S(=O)(=O)c1ccc(C(F)(F)F)cc1)[C@@H]23)OCC12CC3CC(CC(C3)C1)C2` has a pIC50 of 4.68.
With `O=C(CCC[C@@H]1[C@H]2CCCN3CCC[C@@H](CN1S(=O)(=O)c1ccc(C(F)(F)F)cc1)[C@@H]23)OCC12CC3CC(CC(O)(C3)C1)C2` the pIC50 was 5.02.
`Cc1ccc(S(=O)(=O)N2C[C@@H]3CCCN4CCC[C@@H]([C@H]34)[C@H]2CCCC(=O)OCC23CC4CC(CC(C4)C2)C3)cc1` gave a pIC50 of 4.79.
Work on `O=C(CCC[C@@H]1[C@H]2CCCN3CCC[C@@H](CN1S(=O)(=O)c1cccc(C(F)(F)F)c1)[C@@H]23)OCC12CC3CC(CC(C3)C1)C2` yielded a pIC50 of 5.29.

Tested on: Influenza A virus
Assay type: functional, organism-based
Details: H5N1 (A/chicken/Hubei/327/2004), MDCK
In the case of `[C-]#[N+]C1C2CC3CC(C2)CC1C3` (centres undefined), the pEC50 was 5.01.
With `[C-]#[N+]c1c(C)cc(C(C)(C)C)cc1C` the pEC50 was 6.62.
Work on `[C-]#[N+][C@@H]1C[C@@H]2C[C@H]([C@H]1C)C2(C)C` yielded a pEC50 of 5.13.
`[C-]#[N+]C(C)C12CC3CC(CC(C3)C1)C2` (centres undefined) gave a pEC50 of 6.62.
`[C-]#[N+]C(C)(C)CC(C)(C)C` showed a pEC50 of 5.41.
Work on `[C-]#[N+]C12CC3CC(CC(C3)C1)C2` yielded a pEC50 of 6.31.

Molecular target: T1, Matrix protein 2
Assay type: cell-based, Oocyte
Details: not given
Remark: another data set of the same source
With `NC1CCC2(CCCCC2)CC1` [listing 2 of 2 here] the pIC50 was 4.90.
With `NC1CC[Si]2(CCCC2)CC1` the pIC50 was 5.11.
`NC1CC[Si]2(CCCCC2)CC1` gave a pIC50 of 4.86.
For `NC1CCC2(CCCC2)CC1` [listing 2 of 2 here], the pIC50 was 5.48.
Work on `C[Si]1(C)CCCNCC1` yielded a pIC50 of 4.71.
With `CC1(C)CCC(N)CC1` the pIC50 was 5.62.
Compound `C[Si]1(C)CCC(N)CC1` has a pIC50 of 5.59.
Work on `CC1(C)CCCNCC1` yielded a pIC50 of 4.58.
In the case of `C[Si]1(C)CCC(CN)CC1`, the pIC50 was 5.24.

Tested on: not listed separately
Test: Cytotoxicity against MDCK cells incubated for 72 hrs by CCK-8 assay
Assay type: toxicity, cell-based, Canis lupus familiaris
Details: dog
Compound `C[C@H]1[C@H](N)C[C@@H]2C[C@H]1C2(C)C` has a CC50 at 72 h of over 300 µM.
`CC1(C)[C@@H]2CC[C@@]1(C)[C@@H](CN)C2` showed a CC50 at 72 h of over 300 µM.
Compound `CC(N)[C@H]1C[C@H]2CC[C@]1(C)C2(C)C` (some centres undefined) has a CC50 at 72 h of over 300 µM.

Tested on: Influenza A virus
Assay type: functional, organism-based
Details: H1N1 (A/Hongkong/68), MDCK, 24 h
`CC(NC(=O)c1csc(CN)n1)C12CC3CC(CC(C3)C1)C2` (centres undefined) gave an IC50 of 0.11 µg/mL (≈ 0.344 µM).

Tested on: Influenza A virus
Assay type: functional, organism-based
Details: A/WSN/33 (H1N1), MDCK, 48 h
With `OC12CC3CC(C1)CC(NCc1cnc(N4CCCCC4)nc1)(C3)C2` the pEC50 was 5.37.
`OC12CC3CC(C1)CC(NCc1ccc(N4CCCCCC4)cn1)(C3)C2` gave a pEC50 of 5.57.
For `c1nc(N2CCCCCC2)ncc1CNC12CC3CC(CC(C3)C1)C2`, the pEC50 was 6.15.
`c1nc(N2CCCCC2)ncc1CNC12CC3CC(CC(C3)C1)C2` showed a pEC50 of 5.82.
`c1nc(N2CCCCCC2)cnc1CNC12CC3CC(CC(C3)C1)C2` showed a pEC50 of 5.72.
`OC12CC3CC(C1)CC(NCc1ccc(N4CCCCCCC4)cn1)(C3)C2` showed a pEC50 of 5.10.

Tested on: not listed separately
Test: Selectivity index, ratio of CC50 for MDCK cells to IC50 for influenza A virus A/hanfang/359/95 (H3N2)
Assay type: toxicity
Details: dog, read-out: Ratio CC50/IC50
In the case of `O=C(CCC[C@@H]1[C@H]2CCCN3CCC[C@@H](CN1S(=O)(=O)c1cccc(C(F)(F)F)c1)[C@@H]23)OCC12CC3CC(CC(C3)C1)C2`, the selectivity ratio was 9.31.

Tested on: not listed separately
Test: Cytotoxicity against MDCK cells measured after 3 days by MTT assay
Assay type: toxicity, cell-based, Canis lupus familiaris
Details: dog, time 3 day
Work on `CC[C@@H](C(=O)[C@@H](C)[C@@H](O)[C@H](C)[C@@H]1O[C@@H]([C@@H](CC)C(=O)O)CC[C@@H]1C)[C@H]1O[C@]2(C=C[C@@H](O)[C@]3(CC[C@@](C)([C@H]4CC[C@](O)(CC)[C@H](C)O4)O3)O2)[C@H](C)C[C@@H]1C` [SALINOMYCIN] yielded a CC50 at 72 h of 35.6 µM.

Tested on: not listed separately
Test: Cytotoxicity against MDCK cells
Assay type: toxicity, cell-based, Canis lupus familiaris
Details: dog
Compound `CC(NC(=O)c1csc(CN)n1)C12CC3CC(CC(C3)C1)C2` (centres undefined) has a CC50 of 50 µg/mL.
With `O=C(CCC[C@@H]1[C@H]2CCCN3CCC[C@@H](CN1S(=O)(=O)c1cccc(C(F)(F)F)c1)[C@@H]23)OCC12CC3CC(CC(C3)C1)C2` the CC50 was 47.8 µM.

Tested on: Influenza A virus
Assay type: functional, organism-based
Details: A/WSN/33 (H1N1), MDCK, 48 h
Remark: another data set of the same source
With `c1c(CNC23CC4CC(CC(C4)C2)C3)noc1C1CC1` the pEC50 was 6.31.
In the case of `Brc1cc(CNC23CC4CC(CC(C4)C2)C3)cs1`, the pEC50 was 5.66.
